Measurements reported in patent US9179678B2, “Substituted [1,2,4]triazoles and substituted tetrazoles as herbicides” (SYNGENTA LIMITED, priority 2012, dated 2015).

Columns and labels:
Assay type in all cases: in vivo
[1] = test system: Setaria faberi (SETFA); test: Post-emergence glasshouse herbicide test; conditions: POST Application, after 13 days
How it was run: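 This post-emergence glasshouse herbicide test used SETFA plants raised in pots of standard soil for 8 days under controlled conditions (24/16° C., 14 hours light, 65% humidity). An aqueous spray made from acetone/water (50:50) with 0.5% Tween 20 was applied. Plants were watered twice daily, and percentage plant damage was assessed 13 days later.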

[2] = test system: Amaranthus retoflexus (AMARE); test: Post-emergence glasshouse herbicide test; conditions: POST Application, after 13 days
[3] = test system: Solanum nigrum (SOLNI); test: Post-emergence glasshouse herbicide test; conditions: POST Application, after 13 days
How it was run: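 This glasshouse post-emergence herbicide test used Solanum nigrum plants sown in standard soil and cultivated for 8 days under controlled conditions (24/16° C. day/night, 14 hours light, 65% humidity). An aqueous spray from an acetone/water (50:50) solution with 0.5% Tween 20 was applied. Plants were watered twice daily, and damage to each plant was assessed as a percentage 13 days later.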

[4] = test system: Alopecurus myosuroides (ALOMY); test: Post-emergence glasshouse herbicide test; conditions: POST Application, after 13 days
How it was run: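 In this glasshouse post-emergence test, ALOMY plants were cultivated in standard soil for 8 days under controlled conditions (24/16° C. day/night, 14 hours light, 65% humidity). They were then treated with a spray derived from an acetone/water (50:50) formulation with 0.5% Tween 20, grown on with watering twice daily, and rated for percentage damage after 13 days.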

[5] = test system: Ipomoea hederacea (IPOHE); test: Pre-emergence glasshouse herbicide test; conditions: PRE Application, after 13 days
[6] = test system: Ipomoea hederacea (IPOHE); test: Post-emergence glasshouse herbicide test; conditions: POST Application, after 13 days
[7] = test system: Setaria faberi (SETFA); test: Pre-emergence glasshouse herbicide test; conditions: PRE Application, after 13 days
[8] = test system: Echinochloa crus-galli (ECHCG); test: Post-emergence glasshouse herbicide test; conditions: POST Application, after 13 days
[9] = test system: Solanum nigrum (SOLNI); test: Pre-emergence glasshouse herbicide test; conditions: PRE Application, after 13 days
[10] = test system: Amaranthus retoflexus (AMARE); test: Pre-emergence glasshouse herbicide test; conditions: PRE Application, after 13 days
[11] = test system: Alopecurus myosuroides (ALOMY); test: Pre-emergence glasshouse herbicide test; conditions: PRE Application, after 13 days
How it was run: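 This pre-emergence glasshouse test used pots of standard soil sown with ALOMY seed and cultivated for one day under controlled conditions of 24/16° C., 14 hours light and 65% humidity. An aqueous spray from an acetone/water (50:50) formulation with 0.5% Tween 20 was applied. After 13 days of further growth with twice-daily watering, plant damage was rated as a percentage.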

[12] = test system: Echinochloa crus-galli (ECHCG); test: Pre-emergence glasshouse herbicide test; conditions: PRE Application, after 13 days
[13] = test system: Echinochloa crus-galli (ECHCG); test: Post-emergence glasshouse herbicide test; conditions: POST Application, 1000 g/h, after 13 days
[14] = test system: Amaranthus retoflexus (AMARE); test: Post-emergence glasshouse herbicide test; conditions: POST Application, 1000 g/h, after 13 days
[15] = test system: Ipomoea hederacea (IPOHE); test: Post-emergence glasshouse herbicide test; conditions: POST Application, 1000 g/h, after 13 days
[16] = test system: Echinochloa crus-galli (ECHCG); test: Pre-emergence glasshouse herbicide test; conditions: PRE Application, 1000 g/h, after 13 days
[17] = test system: Amaranthus retoflexus (AMARE); test: Pre-emergence glasshouse herbicide test; conditions: PRE Application, 1000 g/h, after 13 days
[18] = test system: Setaria faberi (SETFA); test: Pre-emergence glasshouse herbicide test; conditions: PRE Application, 1000 g/h, after 13 days
[19] = test system: Solanum nigrum (SOLNI); test: Pre-emergence glasshouse herbicide test; conditions: PRE Application, 1000 g/h, after 13 days
[20] = test system: Ipomoea hederacea (IPOHE); test: Pre-emergence glasshouse herbicide test; conditions: PRE Application, 1000 g/h, after 13 days

| SMILES | percentage damage caused to the plant, SETFA ([1]; 1000 g/h) | percentage damage caused to the plant, ECHCG [13] | percentage damage caused to the plant, AMARE [14] | percentage damage caused to the plant, SOLNI ([3]; 1000 g/h) | percentage damage caused to the plant, IPOHE [15] | percentage damage caused to the plant, ALOMY ([4]; 1000 g/h) | percentage damage caused to the plant, ECHCG [16] | percentage damage caused to the plant, AMARE [17] | percentage damage caused to the plant, SETFA [18] | percentage damage caused to the plant, SOLNI [19] | percentage damage caused to the plant, IPOHE [20] | percentage damage caused to the plant, ALOMY ([11]; 1000 g/h) | also measured |
| --- | --- | --- | --- | --- | --- | --- | --- | --- | --- | --- | --- | --- | --- |
| Cn1nnnc1NC(=O)c1nc2ccc(F)cc2n(-c2ccccc2)c1=O [Compound 5.010] | – | – | – | – | – | – | – | – | – | – | – | – | percentage damage caused to the plant, SETFA ([1]; applied at 250 g/ha): 4 (4=60-79%); percentage damage caused to the plant, AMARE ([2]; applied at 250 g/ha): 5 (5=80-100%); percentage damage caused to the plant, SOLNI ([3]; applied at 250 g/ha): 5 (5=80-100%); percentage damage caused to the plant, ALOMY ([4]; applied at 250 g/ha): 1 (1=0-19%); percentage damage caused to the plant, IPOHE ([5]; applied at 250 g/ha): 2 (2=20-39%); percentage damage caused to the plant, IPOHE ([6]; applied at 250 g/ha): 5 (5=80-100%); percentage damage caused to the plant, SETFA ([7]; applied at 250 g/ha): 1 (1=0-19%); percentage damage caused to the plant, ECHCG ([8]; applied at 250 g/ha): 3 (3=40-59%); percentage damage caused to the plant, SOLNI ([9]; applied at 250 g/ha): 4 (4=60-79%); percentage damage caused to the plant, AMARE ([10]; applied at 250 g/ha): 5 (5=80-100%); percentage damage caused to the plant, ALOMY ([11]; applied at 250 g/ha): 1 (1=0-19%); percentage damage caused to the plant, ECHCG ([12]; applied at 250 g/ha): 1 (1=0-19%) |
| Cn1nnnc1NC(=O)c1nc2ccccc2n(-c2ccoc2)c1=O [Compound 5.013] | – | – | – | – | – | – | – | – | – | – | – | – | percentage damage caused to the plant, SETFA ([1]; applied at 250 g/ha): 1 (1=0-19%); percentage damage caused to the plant, AMARE ([2]; applied at 250 g/ha): 5 (5=80-100%); percentage damage caused to the plant, SOLNI ([3]; applied at 250 g/ha): 5 (5=80-100%); percentage damage caused to the plant, ALOMY ([4]; applied at 250 g/ha): 1 (1=0-19%); percentage damage caused to the plant, IPOHE ([5]; applied at 250 g/ha): 4 (4=60-79%); percentage damage caused to the plant, IPOHE ([6]; applied at 250 g/ha): 4 (4=60-79%); percentage damage caused to the plant, SETFA ([7]; applied at 250 g/ha): 2 (2=20-39%); percentage damage caused to the plant, ECHCG ([8]; applied at 250 g/ha): 1 (1=0-19%); percentage damage caused to the plant, SOLNI ([9]; applied at 250 g/ha): 5 (5=80-100%); percentage damage caused to the plant, AMARE ([10]; applied at 250 g/ha): 5 (5=80-100%); percentage damage caused to the plant, ALOMY ([11]; applied at 250 g/ha): 1 (1=0-19%); percentage damage caused to the plant, ECHCG ([12]; applied at 250 g/ha): 2 (2=20-39%) |
| Cc1cc(-n2c(=O)c(C(=O)Nc3nnnn3C)nc3ccccc32)ccc1F [Compound 5.028] | – | – | – | – | – | – | – | – | – | – | – | – | percentage damage caused to the plant, SETFA ([1]; applied at 500 g/ha): 5 (5=80-100%); percentage damage caused to the plant, AMARE ([2]; applied at 500 g/ha): 5 (5=80-100%); percentage damage caused to the plant, SOLNI ([3]; applied at 500 g/ha): 5 (5=80-100%); percentage damage caused to the plant, ALOMY ([4]; applied at 500 g/ha): 4 (4=60-79%); percentage damage caused to the plant, IPOHE ([5]; applied at 500 g/ha): 5 (5=80-100%); percentage damage caused to the plant, IPOHE ([6]; applied at 500 g/ha): 5 (5=80-100%); percentage damage caused to the plant, SETFA ([7]; applied at 500 g/ha): 5 (5=80-100%); percentage damage caused to the plant, ECHCG ([8]; applied at 500 g/ha): 5 (5=80-100%); percentage damage caused to the plant, SOLNI ([9]; applied at 500 g/ha): 5 (5=80-100%); percentage damage caused to the plant, AMARE ([10]; applied at 500 g/ha): 5 (5=80-100%); percentage damage caused to the plant, ALOMY ([11]; applied at 500 g/ha): 3 (3=40-59%); percentage damage caused to the plant, ECHCG ([12]; applied at 500 g/ha): 5 (5=80-100%) |
| Cn1ncnc1NC(=O)c1nc2ccccc2n(-c2ccccc2)c1=O [Compound 5.041] | 1 (1=0-19%) | 1 (1=0-19%) | 5 (5=80-100%) | 5 (5=80-100%) | 5 (5=80-100%) | 2 (2=20-39%) | 1 (1=0-19%) | 5 (5=80-100%) | 1 (1=0-19%) | 5 (5=80-100%) | 2 (2=20-39%) | 1 (1=0-19%) | – |
| Cn1nnnc1NC(=O)c1nc2ccccc2n(-c2ccc(I)cc2)c1=O [Compound 5.042] | 5 (5=80-100%) | 3 (3=40-59%) | 5 (5=80-100%) | 5 (5=80-100%) | 5 (5=80-100%) | 2 (2=20-39%) | 3 (3=40-59%) | 5 (5=80-100%) | 2 (2=20-39%) | 5 (5=80-100%) | 5 (5=80-100%) | 2 (2=20-39%) | – |
| Cn1nnnc1NC(=O)c1cc2cc(F)cnc2n(-c2ccccc2)c1=O [Compound 6.001] | 3 (3=40-59%) | 5 (5=80-100%) | 5 (5=80-100%) | 5 (5=80-100%) | 5 (5=80-100%) | 3 (3=40-59%) | 3 (3=40-59%) | 4 (4=60-79%) | 1 (1=0-19%) | 5 (5=80-100%) | 4 (4=60-79%) | 1 (1=0-19%) | – |
| Cc1nc2c(cc1F)cc(C(=O)Nc1nnnn1C)c(=O)n2-c1ccsc1 [Compound 6.002] | 2 (2=20-39%) | 4 (4=60-79%) | 5 (5=80-100%) | 5 (5=80-100%) | 5 (5=80-100%) | 1 (1=0-19%) | 1 (1=0-19%) | 5 (5=80-100%) | 1 (1=0-19%) | 4 (4=60-79%) | 2 (2=20-39%) | 1 (1=0-19%) | – |
| Cc1nc2c(cc1F)cc(C(=O)Nc1nnnn1C)c(=O)n2-c1ccccc1 [Compound 6.003] | 3 (3=40-59%) | 4 (4=60-79%) | 5 (5=80-100%) | 5 (5=80-100%) | 5 (5=80-100%) | 1 (1=0-19%) | 3 (3=40-59%) | 5 (5=80-100%) | 1 (1=0-19%) | 5 (5=80-100%) | 3 (3=40-59%) | 1 (1=0-19%) | – |
| Cn1nnnc1NC(=O)c1cc2ccccc2n(-c2ccccc2)c1=O [Compound 7.001] | 1 (1=0-19%) | 2 (2=20-39%) | 3 (3=40-59%) | 4 (4=60-79%) | 2 (2=20-39%) | 1 (1=0-19%) | 1 (1=0-19%) | 2 (2=20-39%) | 1 (1=0-19%) | 1 (1=0-19%) | 1 (1=0-19%) | 1 (1=0-19%) | – |
| Cn1nnnc1NC(=O)c1cc2ccccc2n(-c2ccsc2)c1=O [Compound 7.002] | 1 (1=0-19%) | 2 (2=20-39%) | 3 (3=40-59%) | 5 (5=80-100%) | 2 (2=20-39%) | 1 (1=0-19%) | 1 (1=0-19%) | 2 (2=20-39%) | 1 (1=0-19%) | 3 (3=40-59%) | 2 (2=20-39%) | 1 (1=0-19%) | – |
| Cn1nnnc1NC(=O)c1cc2ccncc2n(-c2ccccc2)c1=O [Compound 8.001] | 1 (1=0-19%) | 4 (4=60-79%) | 5 (5=80-100%) | 5 (5=80-100%) | 3 (3=40-59%) | 1 (1=0-19%) | 1 (1=0-19%) | 5 (5=80-100%) | 1 (1=0-19%) | 2 (2=20-39%) | 1 (1=0-19%) | 1 (1=0-19%) | – |
